Test system: orthotopic U87MG-luc glioma
Type: in vivo, BALB/c nude mice

CC1(C)C(/C=C/C=C/C=C/C=C2\N(CCCCS(=O)(=O)O)c3ccc4ccccc4c3C2(C)C)=[N+](CCCCS(=O)(=O)[O-])c2ccc3ccccc3c21 [ICG, indocyanine green, reference compound]
detection in orthotopic glioma by fluorescent imaging (2 h after i.v. injection, 30 nmol, n = 3): detected
ICG signal at the tumor site by tissue fluorescence imaging (Figure S9): slightly detectable
ex vivo fluorescent signals in tumors (brains harvested at 72 h postinjection): undetectable

— paper PMC9839507 (ACS applied materials & interfaces, 2022)
